Consider 33 compounds from patent US9499551B2, “Substituted pyrrolo[2,3-b]pyridines for treating cancer or inflammatory diseases” (Confluence Life Sciences, Inc., priority 2014, dated 2016).

Structures are written as SMILES. Bounds are passed on as bounds.

The test addresses T1, TAK1-TAB1 (Homo sapiens, UniProt O43318).
T1 sequence (O43318 with tags, fused parts or gaps limits assumed): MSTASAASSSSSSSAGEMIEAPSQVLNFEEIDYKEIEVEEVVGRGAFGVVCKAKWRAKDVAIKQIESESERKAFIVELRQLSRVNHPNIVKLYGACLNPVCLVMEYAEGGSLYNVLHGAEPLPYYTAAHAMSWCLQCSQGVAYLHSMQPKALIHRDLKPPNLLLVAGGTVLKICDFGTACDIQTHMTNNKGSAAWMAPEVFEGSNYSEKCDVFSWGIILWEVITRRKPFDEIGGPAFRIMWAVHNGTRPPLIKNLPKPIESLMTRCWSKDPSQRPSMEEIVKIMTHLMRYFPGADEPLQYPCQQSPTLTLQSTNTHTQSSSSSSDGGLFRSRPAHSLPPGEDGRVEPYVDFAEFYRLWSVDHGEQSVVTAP
The test can be described thus: TAK1-TAB1 binding inhibitory potency (LanthaScreen competitive binding assay, kinase tracer-236). The settings on record: 10 nM TAK1-TAB1, 100 nM kinase tracer-236; read-out: TAK1-Tab Inhibition IC50. The text has this: TAK1-TAB1 Binding Inhibitory Potency:
The ability of candidate compounds to interact with TAK1-TAB1 is quantitated by a competitive binding assay using the LanthaScreen technology developed by Life Technologies. This assay is based on the binding of a proprietary, Alexa Fluor® 647-labeled, ATP-competitive kinase inhibitor (kinase tracer-236) to the TAK1-TAB1 construct in presence of a europium-conjugated antibody, resulting in a FRET (fluorescence resonance energy transfer) signal. Displacement of the kinase tracer by compound results in a lower emission ratio upon excitation of the europium chelate. Candidate compounds are designed as potential irreversible inhibitors of TAK1-TAB1, capable of ligating to an active site cysteine residue. The time dependent nature of irreversible inhibition is investigated by performing the binding assay with and without a pre-incubation of compound and TAK1-TAB1.
The inhibitory potency of candidate compounds is measured in 20 mM HEPES pH 7.5, 10 mM MgCl2, 0.01% BSA, 0.0005% Tween-20, and 2% DMSO in the presence of 10 nM TAK1-TAB1, 2 nM Eu-anti-his antibody, and 100 nM kinase tracer-236 using a 384-well plate format. Background signal is defined in the absence of TAK1-TAB1 and uninhibited signal is defined in the presence of vehicle (2% DMSO) alone. Compounds were evaluated in an 11 point dose-response ranging from 20 μM to 0.34 nM. The binding assays are performed under two conditions to evaluate time dependence of inhibition. For the pre-incubation assay, TAK1-TAB1 and Eu-anti-his antibody are preincubated with compound or vehicle for two hours prior to the addition of kinase tracer. The non-preincubated assay is run in which TAK1-TAB1 and Eu-anti-his antibody are added to a mixture of compound and kinase tracer. IC50 values of compounds are determined using a 4 parameter logistical fit of emission ratio as a function of the concentration of compound. […]
On the technique in general: In TR-FRET formats the signal depends on donor and acceptor labels being close together.
With `O=C(Nc1c[nH]c2ncc(-c3ccccc3)cc12)C1=CCCC1` [Example 232, N-(5-phenyl-1H-pyrrolo[2,3-b]pyridin-3-yl)cyclopent-1-enecarboxamide], the IC50 – broadly, the concentration needed to halve the response being measured – is more than 1000 nM.
Under `C=C(C)C(=O)Nc1c[nH]c2ncc(-c3ccccc3)cc12` [Example 233, N-(5-phenyl-1H-pyrrolo[2,3-b]pyridin-3-yl) methacrylamide] stands more than 1000 nM; under `C/C=C/C(=O)Nc1c[nH]c2ncc(-c3ccccc3)cc12` [Example 235, (E)-N-(5-phenyl-1H-pyrrolo[2,3-b]pyridin-3-yl)but-2-enamide], more than 1000 nM; under `C=CC(=O)Nc1c[nH]c2ncc(-c3ccccc3)cc12` [Example 236, N-(5-phenyl-1H-pyrrolo[2,3-b]pyridin-3-yl)acrylamide], more than 1000 nM.
As for `CC#CC(=O)Nc1c[nH]c2ncc(-c3ccccc3)cc12` [Example 237, N-(5-phenyl-1H-pyrrolo[2,3-b]pyridin-3-yl)but-2-ynamide], the IC50 was not above 1000 nM.
Under `C#CC(=O)Nc1c[nH]c2ncc(-c3ccccc3)cc12` [Example 238, N-(5-phenyl-1H-pyrrolo[2,3-b]pyridin-3-yl)propiolamide] stands more than 1000 nM; under `O=C(/C=C/CO)Nc1c[nH]c2ncc(-c3ccccc3)cc12` [Example 239, (E)-4-hydroxy-N-(5-phenyl-1H-pyrrolo[2,3-b]pyridin-3-yl)but-2-enamide], not above 1000 nM.
For the compound `CN(C)C/C=C/C(=O)Nc1c[nH]c2ncc(-c3ccccc3)cc12` [Example 241, (E)-4-(dimethylamino)-N-(5-phenyl-1H-pyrrolo[2,3-b]pyridin-3-yl)but-2-enamide], the IC50 was more than 1000 nM.
The figure for `N#CC(C#N)=Cc1c[nH]c2ncc(-c3ccccc3)cc12` [Example 242, 2-((5-phenyl-1H-pyrrolo[2,3-b]pyridin-3-yl)methylene) malononitrile] is more than 1000 nM; for `NC(=O)/C=C/c1c[nH]c2ncc(-c3ccc(N4CCCC4)nc3)nc12` [Example 254, (E)3-(2-(6-(pyrrolidin-1-yl)pyridin-3-yl)-5H-pyrrolo[2,3-b]pyrazin-7-yl)acrylamide] it is more than 1000 nM.
With `NC(=O)/C=C/c1c[nH]c2ncc(-c3cccnc3)nc12` [Example 255, (E)-3-(2-(pyridin-3-yl)-5H-pyrrolo[2,3-b]pyrazin-7-yl)acrylamide], the IC50 was more than 1000 nM.
Under `CC(C)OC(=O)N1CCN(c2cnc3[nH]cc(/C=C/C(N)=O)c3c2)CC1` [Example 301, (E)-isopropyl 4-(3-(3-amino-3-oxoprop-1-en-1-yl)-1H-pyrrolo[2,3-b]pyridin-5-yl)piperazine-1-carboxylate] stands not above 1000 nM; under `NC(=O)/C=C/c1c[nH]c2ncc(N3CCN(C(=O)Oc4ccccc4)CC3)cc12` [Example 302, (E)-phenyl 4-(3-(3-amino-3-oxoprop-1-en-1-yl)-1H-pyrrolo[2,3-b]pyridin-5-yl)piperazine-1-carboxylate], not above 1000 nM; under `CC(=O)c1ccc(-c2cnc3[nH]cc(/C=C/C(N)=O)c3c2)cn1` [Example 303, (E)-3-(5-(6-acetylpyridin-3-yl)-1H-pyrrolo[2,3-b]pyridin-3-yl)acrylamide], not above 1000 nM.
Under `CC(=O)c1cncc(-c2cnc3[nH]cc(/C=C/C(N)=O)c3c2)c1` [Example 304, (E)-3-(5-(5-acetylpyridin-3-yl)-1H-pyrrolo[2,3-b]pyridin-3-yl)acrylamide] stands not above 1000 nM; under `CC(C)(O)c1ccc(-c2cnc3[nH]cc(/C=C/C(N)=O)c3n2)cn1` [Example 305, (E)-3-(2-(6-(2-hydroxypropan-2-yl)pyridin-3-yl)-5H-pyrrolo[2,3-b]pyrazin-7-yl)acrylamide], not above 1000 nM; under `CC(=O)c1cccc(-c2cnc3[nH]cc(/C=C/C(N)=O)c3n2)c1` [Example 306, (E)-3-(2-(3-acetylphenyl)-5H-pyrrolo[2,3-b]pyrazin-7-yl)acrylamide], not above 1000 nM.
Under `CC(=O)c1ccc(-c2cnc3[nH]cc(/C=C/C(N)=O)c3n2)cc1` [Example 307, (E)-3-(2-(4-acetylphenyl)-5H-pyrrolo[2,3-b]pyrazin-7-yl)acrylamide] stands not above 1000 nM; under `CC(C)(O)c1cccc(-c2cnc3[nH]cc(/C=C/C(N)=O)c3n2)c1` [Example 308, (E)-3-(2-(3-(2-hydroxypropan-2-yl)phenyl)-5H-pyrrolo[2,3-b]pyrazin-7-yl)acrylamide], not above 1000 nM; under `CC(C)(O)c1ccc(-c2cnc3[nH]cc(/C=C/C(N)=O)c3n2)cc1` [Example 309, (E)-3-(2-(4-(2-hydroxypropan-2-yl)phenyl)-5H-pyrrolo[2,3-b]pyrazin-7-yl)acrylamide], not above 1000 nM.
Consider `CCC(C)(O)c1ccc(-c2cnc3[nH]cc(/C=C/C(N)=O)c3c2)cc1` (stereo not drawn) [Example 310, (E)-3-(5-(4-(2-hydroxybutan-2-yl)phenyl)-1H-pyrrolo[2,3-b]pyridin-3-yl)acrylamide], for which the IC50 is not above 1000 nM.
For `CC(C)(O)c1cncc(-c2cnc3[nH]cc(/C=C/C(N)=O)c3c2)c1` [Example 311, (E)-3-(5-(5-(2-hydroxypropan-2-yl)pyridin-3-yl)-1H-pyrrolo[2,3-b]pyridin-3-yl)acrylamide], the IC50 is not above 1000 nM.
For the compound `CC(C)(O)c1ccc(-c2cnc3[nH]cc(/C=C/C(N)=O)c3c2)cn1` [Example 312, (E)-3-(5-(6-(2-hydroxypropan-2-yl)pyridin-3-yl)-1H-pyrrolo[2,3-b]pyridin-3-yl)acrylamide], the IC50 is not above 1000 nM.
The figure for `CCC(=O)c1ccc(-c2cnc3[nH]cc(/C=C/C(N)=O)c3c2)c(C)c1` [Example 313, (E)-3-(5-(2-methyl-4-propionylphenyl)-1H-pyrrolo[2,3-b]pyridin-3-yl)acrylamide] is not above 1000 nM; for `CCC(=O)c1ccc(-c2cnc3[nH]cc(/C=C/C(N)=O)c3n2)c(C)c1` [Example 314, (E)-3-(2-(2-methyl-4-propionylphenyl)-5H-pyrrolo[2,3-b]pyrazin-7-yl)acrylamide] it is not above 1000 nM.
With `CC(=O)c1cc(-c2cnc3[nH]cc(/C=C/C(N)=O)c3c2)ccn1` [Example 315, (E)-3-(5-(2-acetylpyridin-4-yl)-1H-pyrrolo[2,3-b]pyridin-3-yl)acrylamide], the IC50 is not above 1000 nM.
The figure for `NC(=O)/C=C/c1c[nH]c2ncc(-c3cc(C(F)(F)F)cc(C(F)(F)F)c3)nc12` [Example 316, (E)-3-(2-(3,5-bis(trifluoromethyl)phenyl)-5H-pyrrolo[2,3-b]pyrazin-7-yl)acrylamide] is not above 1000 nM; for `CC(C)(O)c1cc(-c2cnc3[nH]cc(/C=C/C(N)=O)c3c2)ccn1` [Example 317, (E)-3-(5-(2-(2-hydroxypropan-2-yl)pyridin-4-yl)-1H-pyrrolo[2,3-b]pyridin-3-yl)acrylamide] it is not above 1000 nM.
For the compound `NC(=O)/C=C/c1c[nH]c2ncc(-c3ccc(C(=O)C(F)(F)F)cc3)cc12` [Example 319, (E)-3-(5-(4-(2,2,2-trifluoroacetyl)phenyl)-1H-pyrrolo[2,3-b]pyridin-3-yl)acrylamide], the IC50 was not above 1000 nM.
Under `NC(=O)/C=C/c1c[nH]c2ncc(-c3ccc(N4CCCCC4)nc3)nc12` [Example 320, (E)-3-(2-(6-(piperidin-1-yl)pyridin-3-yl)-5H-pyrrolo[2,3-b]pyrazin-7-yl)acrylamide] stands not above 1000 nM; under `NC(=O)/C=C/c1c[nH]c2ncc(N3CC(NC(=O)C4CCCC4)C3)cc12` [Example 321, (E)-N-(1-(3-(3-amino-3-oxoprop-1-en-1-yl)-1H-pyrrolo[2,3-b]pyridin-5-yl)azetidin-3-yl) cyclopentane-carboxamide], not above 1000 nM.
As to `NC(=O)/C=C/c1c[nH]c2ncc(-c3ccc(C(O)c4nccs4)cc3)cc12` (stereo not drawn) [Example 322, (E)-3-(5-(4-(hydroxy(thiazol-2-yl)methyl)phenyl)-1H-pyrrolo[2,3-b]pyridin-3-yl)acrylamide], the IC50 was not above 1000 nM.
For the compound `NC(=O)/C=C\c1c[nH]c2ncc(-c3ccc(C(O)c4nccs4)cc3)cc12` (stereo not drawn) [Example 323, (Z)-3-(5-(4-(hydroxy(thiazol-2-yl)methyl)phenyl)-1H-pyrrolo[2,3-b]pyridin-3-yl)acrylamide], the concentration for half-maximal inhibition (IC50) was not above 1000 nM.
